The source of these data is patent US12594283B2 (The Medical College of Wisconsin, Inc., priority 2019, dated 2026).

pIC50: −log10 of the molar value. Where two headings read alike, the source gives them in different places.

In one data set the test system is MiaPaCa-2 cells. The data set can be described thus: MiaPaCa-2 cell proliferation, IncuCyte live-cell imaging (cell confluence). In kind it is cell-based, human. To be noted: for pIC50: Homo sapiens; for antiproliferative effect compared with corresponding Mito-ATO analog: MiaPaCa-2 cells, controls lacking TPP+ (FIG. 9). An excerpt:
FIG. 1. […] (A) Chemical structures of ATO and Mito-ATO analogs. […] Cell proliferation was monitored in real-time with the continuous presence of indicated treatments until the end of each experiment. […] Dashed lines represent the fitting curves used to determine their IC50 values as indicated.
The IncuCyte Live-Cell Imaging system (IncuCyte Essen Bioscience Inc., Ann Arbor, MI) was used to monitor cell proliferation.^11-13 As shown in previous publications,^11,12 this imaging system is probe-free and noninvasive, and enables continuous monitoring of cell confluence over several days. The increase in the percentage of cell confluence was used as a surrogate marker of cell proliferation. In a 96-well plate, cells were plated at 1,000 cells per well in triplicates and left to adhere overnight.

Another data set has as its target mitochondrial complex I (Homo sapiens, UniProt O75251+O75306+P03886). The data set can be described thus: Mitochondrial complex I-driven oxygen consumption rate (Seahorse XF96) in permeabilized MiaPaCa-2 cells. In kind it is cell-based. To be noted: 24 h treatment. The procedure:
FIG. 2. […] Relative complex I (1.5 mM malate, 10 mM pyruvate, 10 mM ADP)-driven OCR (left) and relative complex III (0.5 mM duroquinol, 10 mM ADP)-driven OCR (right) were monitored by XF-96 analyser. Either Rot (complex I inhibitor) or antimycin A (AA, complex III inhibitor) was acutely added and OCR assayed immediately. […] Dashed lines represent the fitting curves used for determination of the IC50 values.
(§1) Briefly, cells that were intact after treatments were immediately permeabilized using the Seahorse XF Plasma Membrane Permeabilizer (Agilent). The mitochondrial complex I-driven OCR was assayed in mannitol and sucrose buffer^31 containing 10 mM pyruvate and 1.5 mM malate (substrates for complex I) and 10 mM malonate (which inhibits complex II activities). The mitochondrial complex III-driven OCR was assayed in mannitol and sucrose buffer containing 0.5 mM duroquinol (substrate for complex III) and 1 μM Rot and 10 mM malonate (which inhibit both complex I and II activities). The mitochondrial complex-dependent oxygen consumption (calculated as Rot- or antimycin A-inhibitable OCR equals basal OCR less OCR after Rot or antimycin A injection) was plotted against concentrations to determine the IC50 values.

Data set [1] has as its target T1, mitochondrial complex III (Homo sapiens, UniProt P00156+P47985).
T1 construct: endogenous in cells; host or cells: MiaPaCa-2
The data set can be described thus: Mitochondrial complex III-driven oxygen consumption rate (Seahorse XF96) in permeabilized MiaPaCa-2 cells. In kind it is cell-based. To be noted: 24 h treatment. The procedure:
FIG. 2. Effects of Mito-ATO analogs on the oxygen consumption induced by mitochondrial complexes I and III. […] MiaPaCa-2 cells were treated with Mito-ATO for 24 h. Relative complex I (1.5 mM malate, 10 mM pyruvate, 10 mM ADP)-driven OCR (left) and relative complex III (0.5 mM duroquinol, 10 mM ADP)-driven OCR (right) were monitored by XF-96 analyser. Either Rot (complex I inhibitor) or antimycin A (AA, complex III inhibitor) was acutely added and OCR assayed immediately. […] Dashed lines represent the fitting curves used for determination of the IC50 values. (n.a., not applicable).
The mitochondrial complex activities were assessed by measuring the oxygen consumption rate (OCR) using the Seahorse technique.^6,11-4 MiaPaCa-2 cells were treated separately with Mito-ATO analogs at different concentrations for 24 h and OCR was measured.
as §1, with “Mitochondrial bioenergetic function was measured in real time using the Seahorse XF 96 Extracellular Flux Analyzer (Agilent, North Billerica, MA).^11-13,22 The OCR-based assessment of mitochondrial complex activities was carried out on acutely permeabilized cells in the presence of different mitochondrial substrates, i.e., pyruvate/malate, for complex I and duroquinol for complex III.^11,14,31,32 Rot, malonate, and antimycin A (Sigma-Aldrich, St. Louis, MO) were used as specific inhibitors of mitochondrial complexes I, II, and III, respectively. Briefly,” for “Briefly,”

Data set [2] relates to CD4+ T cells from SMARTA triple reporter mice. Nature of the data set: In vitro differentiation of CD4+ T regulatory cells, flow cytometry. The class given is cell-based, mouse. To be noted: for Treg (FoxP3+CD25+) differentiation and/or survival: six days culture with TGFβ and IL-2, ATO, butyl-ATO, decyl-ATO up to 60 μM. An excerpt: FIG. 5. In vitro differentiation of CD4^+ T regulatory cells under varying concentrations of Mito-ATOs and controls. After six days of culture, cells were stained for flow cytometry analysis. (left) Live/dead staining to assess the percentage of live CD4+ T cells within the lymphocyte gate. (middle) Teff cell function is shown as the frequency of IFNγ-GFP positive cells within the live CD4^+ T cells. (right) The percentage of Treg cells is shown as the frequency of FoxP3^+CD25^+ cells within the live CD4^+ T cells.
After six days, cells were stained to assess viability, phenotype, and function using the flow cytometry.
Mice. SMARTA triple reporter mice were generated in the following manner. First, IL-10 and IL-21 double-reporter mice^33 were generated by cross-breeding IL-21tRFP mice^34-35 with 10 BiT mice (kindly provided by Dr. Casey Weaver, University of Alabama at Birmingham). Double reporter mice were then crossed with GREAT (interferon-gamma reporter with endogenous polyA transcript) mice^36 from Jackson Laboratory (Stock No. 017581). These triple-reporter mice were then crossed with SMARTA mice^37 (kindly provided by Dr. Dorian McGavern, National Institutes of Health). Mice were bred and maintained in a closed breeding facility, and mouse handling conformed to the requirements of the Medical College of Wisconsin Institutional Animal Care and Use Committee guidelines. All experimental protocols were approved by the Medical College of Wisconsin Institutional Animal Care and Use Committee.
Cell culture. To differentiate CD4^+ T cells into a T regulatory cell phenotype, splenocytes from SMARTA triple-reporter mice were processed and the red blood cell lysed using an ACK (ammonium-chloride-potassium) lysis buffer. The cells were then activated with 1 μg/mL […] peptide (GenScript, Piscataway, NJ) and 5 ng/mL TGF-β1 (Shenandoah Biotechnology, Inc., Warwick, PA). […] Cells were cultured for six days and split once cells reached confluency; cells were replenished with IL-2 and compound accordingly. After six days in culture, cells were stained to assess the viability and phenotypic analysis via flow cytometry. LIVE/DEAD fixable violet or aqua dead cell stain (Invitrogen, Carlsbad, CA) was used to assess cell viability. The following antibodies were used for flow cytometry staining: PercP anti-mouse CD4 (clone: GK1.5; BioLegend, San Diego, CA), APC/Cy7 anti-mouse CD25 (clone: PC61; BioLegend), and PE anti-mouse FOXP3 (clone: FJK-16S; eBioscience, San Diego, CA). Flow cytometry data were acquired using a BD LSRII (BD Biosciences, CA) flow cytometer and analysed using FlowJo (Treestar, Inc., Ashland, OR).

The test system of the next data set is MiaPaCa-2 and A549 cells. Nature of the data set: Cellular uptake by LC-MS/MS. The class given is cell-based, human. The note with it: Mito10-ATO 0.1 and 1 μM, ATO 1-10 μM; 1, 2, 4 and 24 h. The procedure: The compounds were extracted according to the published experimental protocol.^11,12 Briefly, cells were washed twice with ice-cold DPBS (Dulbecco's Phosphate Buffered Saline) and harvested. The cell pellet was immediately frozen in liquid nitrogen and stored at −80° C. For the extraction, the pellet was homogenized in 200 μl DPBS (2 μl were taken for protein assay) and extracted twice with a dichloromethane:methanol (2:1) mixture. The organic layers were combined and dried using a SpeedVac concentrator (Thermo Fisher Scientific, Waltham MA). The dry residue was dissolved in ice-cold methanol and taken for LC-MS/MS analysis. LC-MS/MS analyses were performed using a Kinetex Phenyl-Hexyl column (50 mm×2.1 mm, 1.7 μm; Phenomenex, Torrance, CA) equilibrated with a water:acetonitrile mixture (4:1) containing 0.1% formic acid. Compounds were eluted by increasing the content of acetonitrile from 20% to 100% over 4 min and detected using the MRM (multiple reaction monitoring) mode.

Data set [3] deals with cyt bc1. To be noted: P. falciparum, Y265S mutations (so in the source); cited from earlier work.
For data set [4], the target named is cyt bc1 (Homo sapiens, UniProt P00156). The note with it: mammalian cells; cited from earlier work.
Chain of cyt bc1 (Homo sapiens, UniProt P00156) (P00156 whole entry): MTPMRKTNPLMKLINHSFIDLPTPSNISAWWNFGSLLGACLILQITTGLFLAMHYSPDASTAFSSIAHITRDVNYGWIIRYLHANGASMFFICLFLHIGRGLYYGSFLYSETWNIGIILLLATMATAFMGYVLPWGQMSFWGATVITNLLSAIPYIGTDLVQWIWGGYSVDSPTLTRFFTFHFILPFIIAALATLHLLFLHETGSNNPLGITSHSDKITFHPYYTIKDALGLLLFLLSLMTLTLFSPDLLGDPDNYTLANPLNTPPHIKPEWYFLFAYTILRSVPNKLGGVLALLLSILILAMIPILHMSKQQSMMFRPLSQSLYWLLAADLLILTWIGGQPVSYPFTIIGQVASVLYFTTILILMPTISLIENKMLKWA

Chain of mitochondrial complex I (O75306 34-463): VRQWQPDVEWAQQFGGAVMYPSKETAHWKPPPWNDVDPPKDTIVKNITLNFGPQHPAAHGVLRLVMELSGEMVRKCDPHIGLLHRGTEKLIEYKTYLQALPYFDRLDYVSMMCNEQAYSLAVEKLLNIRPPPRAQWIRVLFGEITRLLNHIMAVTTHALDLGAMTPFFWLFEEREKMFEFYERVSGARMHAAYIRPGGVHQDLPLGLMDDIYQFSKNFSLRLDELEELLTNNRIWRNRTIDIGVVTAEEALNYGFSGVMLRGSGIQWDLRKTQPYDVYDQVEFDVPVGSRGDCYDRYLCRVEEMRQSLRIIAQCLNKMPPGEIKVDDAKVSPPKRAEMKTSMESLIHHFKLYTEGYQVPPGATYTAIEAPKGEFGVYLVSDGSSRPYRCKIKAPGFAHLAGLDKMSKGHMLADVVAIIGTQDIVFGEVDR
Chain of mitochondrial complex I (O75251 39-213): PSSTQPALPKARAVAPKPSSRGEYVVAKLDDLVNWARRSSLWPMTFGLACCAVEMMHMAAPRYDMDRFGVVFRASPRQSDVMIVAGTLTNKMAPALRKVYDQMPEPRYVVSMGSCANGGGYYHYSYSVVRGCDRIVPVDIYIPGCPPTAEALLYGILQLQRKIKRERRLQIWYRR
Chain of mitochondrial complex I (P03886 whole entry): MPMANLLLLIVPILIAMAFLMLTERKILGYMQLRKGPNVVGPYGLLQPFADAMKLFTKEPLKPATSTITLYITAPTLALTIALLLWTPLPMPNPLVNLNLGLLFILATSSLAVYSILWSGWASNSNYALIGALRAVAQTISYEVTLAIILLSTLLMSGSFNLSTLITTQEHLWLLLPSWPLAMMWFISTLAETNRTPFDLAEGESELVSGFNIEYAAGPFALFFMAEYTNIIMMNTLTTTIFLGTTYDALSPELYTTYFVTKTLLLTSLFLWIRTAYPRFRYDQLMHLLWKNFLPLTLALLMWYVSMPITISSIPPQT

Turning to `O=C1C(OCCCCCCCCCCCC[P+](c2ccccc2)(c2ccccc2)c2ccccc2)=C([C@H]2CC[C@H](c3ccc(Cl)cc3)CC2)C(=O)c2ccccc21` [Mito12-ATO], in the data set on MiaPaCa-2 cells (MIA PaCa-2, MiaPaCa-2 pancreatic cancer cells, continuous treatment, read as control reaches 98% confluency, read-out: IC50, inhibition of cell proliferation (cell confluence)), the pIC50 was 6.46. Besides, at mitochondrial complex I, the “inhibition of complex I-induced oxygen consumption” value is given as “inhibited only the complex I-induced oxygen consumption”. The “inhibition of complex III-induced oxygen consumption” value in data set [1] is “did not inhibit”. Also, the “Treg (FoxP3+CD25+) differentiation and/or survival” value in data set [2] is given as “did not appreciably inhibit Treg differentiation”.

Regarding `O=C1C(OCCCC[P+](c2ccccc2)(c2ccccc2)c2ccccc2)=C([C@H]2CC[C@H](c3ccc(Cl)cc3)CC2)C(=O)c2ccccc21` [Mito4-ATO], the “inhibition of complex I-induced oxygen consumption” value at mitochondrial complex I was “potently inhibit”. Also, the “inhibition of complex III-induced oxygen consumption” value in data set [1] was “potently inhibit”. The “Treg (FoxP3+CD25+) differentiation and/or survival” value in data set [2] was “inhibited Foxp3^+ Treg differentiation and/or survival”. Besides, in data set [2] (six days culture, IFNγ-GFP positive cells within live CD4+ T cells), the “Teff cell IFNγ production” value is on record as “promoted Teff cell IFNγ production in a dose-dependent manner”.

Take `CCCCOC1=C([C@H]2CC[C@H](c3ccc(Cl)cc3)CC2)C(=O)c2ccccc2C1=O` [Butyl-ATO, reference compound]: the “antiproliferative effect compared with corresponding Mito-ATO analog” value with MiaPaCa-2 cells is given as “much less effective than their corresponding Mito-ATO analogs”. Besides, the “Treg (FoxP3+CD25+) differentiation and/or survival” value in data set [2] is “did not inhibit Treg differentiation and/or survival”.

With `O=C1C(O)=C([C@H]2CC[C@H](c3ccc(Cl)cc3)CC2)C(=O)c2ccccc21` [ATO, trans-2-[4-(4-chlorophenyl)cyclohexyl]-3-hydroxy-1,4-naphthalene-dione], the pIC50 in the data set with MiaPaCa-2 cells (MIA PaCa-2, read-out: IC50, inhibition of cell proliferation (cell confluence)) is 4.74. The “cellular uptake / intracellular accumulation” value in the data set with MiaPaCa-2 and A549 cells is “uptake was considerably lower and did not accumulate in cancer cells over a 24 h period”. For the same compound, in data set [2], the “Treg (FoxP3+CD25+) differentiation and/or survival” value is recorded as “did not inhibit Treg differentiation and/or survival”. Besides, the “increase in IC50 for ATO caused by mutation at Q0 site” value in the data set on cyt bc1 [3] is ~9,000 fold. Further, the “IC50 for inhibition of cyt bc1” value at cyt bc1 [4] is given as “micromolar range”.

As for `CCCCCCCCCCOC1=C([C@H]2CC[C@H](c3ccc(Cl)cc3)CC2)C(=O)c2ccccc2C1=O` [Decyl-ATO, reference compound], the “antiproliferative effect compared with corresponding Mito-ATO analog” value with MiaPaCa-2 cells was “much less effective than their corresponding Mito-ATO analogs”. Moreover, the “Treg (FoxP3+CD25+) differentiation and/or survival” value in data set [2] was “did not inhibit Treg differentiation and/or survival”.

Regarding `O=C1C(OCCCCCCCCCCCCCCCC[P+](c2ccccc2)(c2ccccc2)c2ccccc2)=C([C@H]2CC[C@H](c3ccc(Cl)cc3)CC2)C(=O)c2ccccc21` [Mito16-ATO], the “inhibition of complex I-induced oxygen consumption” value against mitochondrial complex I is listed as “inhibited only the complex I-induced oxygen consumption”. Moreover, the “inhibition of complex III-induced oxygen consumption” value in data set [1] is “did not inhibit”.
